Data from patent US20040096356A1, “Assay device for determining analytes in a liquid dairy product” (priority 1997, published 2004).

Key:
Assay type in all cases: binding
receptor BlaR-CTD [1] = biological target: T1, receptor BlaR-CTD (Bacillus licheniformis, UniProt P12287); assay: Five minutes test: strip test for β-lactam antibiotics in milk using BlaR-CTD; conditions: for lowest concentration detected in a milk sample: in 5 minutes, positive when first band is less intense than second band; for Intensity 1st band: scale 0 to 10, reference band 6, 47° C., 3 min incubation + 2 min migration
T1 construct: the receptor BlaR-CTD is the carboxy-terminal region of BlaR
T1 sequence (P12287 340-601): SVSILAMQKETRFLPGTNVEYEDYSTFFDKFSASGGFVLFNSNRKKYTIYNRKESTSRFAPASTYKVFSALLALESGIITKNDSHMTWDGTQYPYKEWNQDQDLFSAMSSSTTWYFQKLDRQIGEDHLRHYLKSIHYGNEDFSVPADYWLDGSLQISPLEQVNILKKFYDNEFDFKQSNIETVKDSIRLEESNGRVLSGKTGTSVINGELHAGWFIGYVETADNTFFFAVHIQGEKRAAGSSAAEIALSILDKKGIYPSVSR
Excerpt: (§1) According to a preferred embodiment of the invention an identifier is used which comprises a receptor sensitive to antibiotics having a β-lactam ring, which receptor is obtained from Bacillus licheniformis, such as the receptor BlaR or the receptor BlaR-CTD. The isolation and the peptide sequence of the protein BlaR are described in Y. Zhu et al., J. Bacteriol., 1137-1141 (1990); the receptor BlaR-CTD is the carboxy-terminal region of BlaR, whose isolation and peptide sequence are described in B. Joris et al., FEMS Microbiology Letters, 107-114 (1990).
(§2) This example illustrates the detection in milk of antibiotics having a β-lactam ring which are monitored by the health authorities. The test described in this example uses the receptor BlaR-CTD coupled with gold beads, which serve as labelling agents, and uses a support which is in the form of an assay device comprising a solid support on which membranes are fixed.
(§3) 3.79 ml of a solution of recognition agent BlaR-CTD having a concentration of 6.6 mg/ml are taken up in a sodium phosphate buffer, 20 mM pH 7. To this solution of BlaR-CTD are then added 41.71 ml of bicarbonate buffer (0.1 M sodium bicarbonate, pH 9) and 2 ml of a solution of N-hydroxysuccinimide 6-(biotinamido)caproic ester containing 2.23 mg/ml likewise of bicarbonate buffer. This solution is stirred gently on a LABINCO stirrer for tubes on a rotary axis (available from VEL, Belgium) at a rate of 2 revolutions/minute for 2 hours at ambient temperature and away from light. 2.5 ml of a solution of Tris buffer, 1 M pH 8 are incubated with the reaction mixture under the same conditions for 30 minutes. The solution thus obtained is dialysed against HNM buffer (Hepes 100 mM, pH 8, NaCl 100 mM, MgCl2 50 mM) for 24 hours. In this way a biotinylated BlaR-CTD solution is obtained which is diluted in HNM-BSA buffer (Hepes 500 mM, pH 8, NaCl 500 mM, MgCl2 250 mM, BSA 10 mg/ml) to a concentration of 250 μg of biotinylated BlaR-CTD per ml of buffer. This solution is stored at −20° C.
(§4) The biotinylated BlaR-CTD solution prepared in Example 3.1.1 is diluted 114.7 times with the HNM-BSA buffer (Hepes 500 mM, pH 8, NaCl 500 mM, MgCl2 250 mM, BSA 10 mg/ml). At room temperature, 22.5 parts by volume of this dilute biotinylated BlaR-CTD solution, 7.5 parts by volume of HNM-BSA buffer, 9.27 parts by volume of the gold particle suspension used to label the biotinylated BlaR-CTD and 6 parts by volume of reference gold particle suspension are mixed (see Example 3.1.4 below).
(§5) The first capture substance makes it possible to fix the BlaR-CTD coupled with the gold beads present in excess relative to the quantity of antibiotic present in the sample.
(§6) Assay devices containing membranes (2), (3) and (4) are used, assembled in accordance with the procedure described in Example 1.1. The membrane (3) of these devices carries on the proximal side the capture substance described in Example 32.1. and on the distal side the capture substance described in Example 3.2.2. The capture substances were deposited in accordance with the procedure described in Example 1.2.
Six samples of fresh milk are prepared, containing 0; 2; 4; 6; 8 and 10 ppb, repsectively, of cloxacillin. Each of these solutions is then analysed as follows.
(§7) An aliquot is taken of 200 μl of milk sample and 45.27 μl of solution prepared in Example 3.1.3, and is placed in a glass flask. This mixture is incubated at 47° C. for 3 minutes. An assay device is taken and is placed vertically in the glass flask such that the first end of the assay device is in contact with the mixture in such a way that the second end rests on the wall of the glass flask. The mixture is allowed to migrate over the assay device while the assembly is incubated at 47° C. for 2 minutes.
(§8) An intensity value ranging from 0 to 10 is awarded to the bands detected, the value 10 being given to the most intense band and the value 0 being given to the least intense band. On this scale, a value of 6 is awarded to the reference band. […]

receptor BlaR-CTD [2] = biological target: T1, receptor BlaR-CTD; assay: 20-minute test: strip test for β-lactam antibiotics in milk using BlaR-CTD; conditions: for Intensity 1st band: scale 0 to 10, reference band 6, 47° C., 18 min incubation + 2 min migration
Excerpt: as §1, §2, §3, §4, §5, §6
Six samples of fresh milk are prepared, containing 0; 20; 30; 40; 50 and 60 ppb, respectively, of ceftiofur. Each of these solutions is then analysed as follows.
as §7, with “for 18” for “for 3”
An intensity value ranging from 0 to 10 is awarded to the bands detected, the value 10 being given to the most intense band and the value 0 being given to the least intense band. On this scale, a value 6 is awarded to the reference band. […]

receptor BlaR-CTD [3] = biological target: T1, receptor BlaR-CTD; assay: 9-minute test: strip test for β-lactam antibiotics in milk using BlaR-CTD; conditions: for lowest concentration detected in a milk sample: in 9 minutes, positive when first band is less intense than second band; for Intensity 1st band: scale 0 to 10, reference band 6, 47° C., 7 min incubation + 2 min migration
Excerpt: as §1, §2, §3, §4, §5, §6
Six samples of fresh milk are prepared, containing 0; 4; 6; 8; 10 and 12 ppb, respectively, of cephapirin. Each of these solutions is then analysed as follows.
as §7, with “for 7” for “for 3”
as §8

receptor BlaR-CTD [4] = biological target: T1, receptor BlaR-CTD; assay: 3-minute rapid test: strip test for β-lactam antibiotics in milk using BlaR-CTD; conditions: in 3 minutes; positive when first band is less intense than second band
Excerpt: as §1, §2, §3, §4, §5, §6
7 samples of fresh milk are prepared, containing 0; 1; 2; 3; 4; 5 and 6 ppb, respectively, of penicillin G. Each of these solutions is then analysed as follows.
as §7, with “for 1 minute.” for “for 3 minutes.”, “mixture and” for “mixture in”, “such” for “such a way”
as §8

SMILES	lowest concentration detected in a milk sample (receptor BlaR-CTD [1])	lowest concentration detected in a milk sample (receptor BlaR-CTD [3])	lowest concentration detected in a milk sample (receptor BlaR-CTD [4])	further results
CO/N=C(\C(=O)N[C@@H]1C(=O)N2C(C(=O)O)=C(CSC(=O)c3ccco3)CS[C@H]12)c1csc(N)n1 [Ceftiofur, ceftiofur]	100 ppb	80 ppb		Intensity 1st band (receptor BlaR-CTD [2]; 20 ppb ceftiofur in fresh milk): 6; Intensity 1st band (receptor BlaR-CTD [2]; 30 ppb ceftiofur in fresh milk): 5; Intensity 1st band (receptor BlaR-CTD [2]; 40 ppb ceftiofur in fresh milk): 4; Intensity 1st band (receptor BlaR-CTD [2]; 50 ppb ceftiofur in fresh milk): 3; Intensity 1st band (receptor BlaR-CTD [2]; 60 ppb ceftiofur in fresh milk): 3; lowest concentration detected in a milk sample (receptor BlaR-CTD [2]; in 20 minutes, positive when first band is less intense than second band): 30 ppb
CC(=O)OCC1=C(C(=O)O)N2C(=O)[C@@H](NC(=O)CSc3ccncc3)[C@H]2SC1 [Cephapirin, cephapirin]	16 ppb	6 ppb	20 ppb	Intensity 1st band (receptor BlaR-CTD [3]; 4 ppb cephapirin in fresh milk): 6; Intensity 1st band (receptor BlaR-CTD [3]; 6 ppb cephapirin in fresh milk): 5; Intensity 1st band (receptor BlaR-CTD [3]; 8 ppb cephapirin in fresh milk): 4; Intensity 1st band (receptor BlaR-CTD [3]; 10 ppb cephapirin in fresh milk): 3; Intensity 1st band (receptor BlaR-CTD [3]; 12 ppb cephapirin in fresh milk): 3
Cc1onc(-c2ccccc2Cl)c1C(=O)N[C@@H]1C(=O)N2[C@@H]1SC(C)(C)[C@@H]2C(=O)O [Cloxacillin, cloxacillin]	4 ppb	4 ppb	less than 10 ppb	Intensity 1st band (receptor BlaR-CTD [1]; 2 ppb cloxacillin in fresh milk): 6; Intensity 1st band (receptor BlaR-CTD [1]; 4 ppb cloxacillin in fresh milk): 5; Intensity 1st band (receptor BlaR-CTD [1]; 6 ppb cloxacillin in fresh milk): 3; Intensity 1st band (receptor BlaR-CTD [1]; 8 ppb cloxacillin in fresh milk): 3; Intensity 1st band (receptor BlaR-CTD [1]; 10 ppb cloxacillin in fresh milk): 3
CC1(C)S[C@@H]2[C@H](NC(=O)[C@H](N)c3ccc(O)cc3)C(=O)N2[C@H]1C(=O)O [amoxicillin]	4 ppb	4 ppb	5 ppb	
CC1(C)S[C@@H]2[C@H](NC(=O)[C@H](N)c3ccccc3)C(=O)N2[C@H]1C(=O)O [ampicillin]	4 ppb	4 ppb	5 ppb	
Cc1nnc(SCC2=C(C(=O)O)N3C(=O)[C@@H](NC(=O)Cn4cnnn4)[C@H]3SC2)s1 [cefazolin]	60 ppb	45 ppb		
CO/N=C(\C(=O)N[C@@H]1C(=O)N2C(C(=O)[O-])=C(C[n+]3cccc4c3CCCC4)CS[C@H]12)c1csc(N)n1 [cefquinone]	less than 20 ppb	less than 20 ppb		
Cc1onc(-c2c(Cl)cccc2Cl)c1C(=O)N[C@@H]1C(=O)N2[C@@H]1SC(C)(C)[C@@H]2C(=O)O [dicloxacillin]	8 ppb	8 ppb		
CCOc1ccc2ccccc2c1C(=O)N[C@@H]1C(=O)N2[C@@H]1SC(C)(C)[C@@H]2C(=O)O [nafcillin]	20 ppb	20 ppb		
Cc1onc(-c2ccccc2)c1C(=O)N[C@@H]1C(=O)N2[C@@H]1SC(C)(C)[C@@H]2C(=O)O [oxacillin]	8 ppb	8 ppb		
